Measured values as given in ChEMBL document CHEMBL1201862, “PubChem BioAssay data set” (2004).
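Cultured in 96-well plates, cells were exposed to test compound for 48 hours across five concentrations. The concentration for 50% growth inhibition is given as GI50.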 The source made the active and inactive calls. Cut-off read from the data, not from the text of the source: active = GI50 up to about 1.1 µM and inactive = higher.

Assays:
Assay in all cases: growth of human tumour cells (NCI), 48 h
NCI-H460 = tested on: NCI-H460
ACHN = tested on: ACHN
MCF7 = tested on: MCF7
RPMI-8226 = tested on: RPMI-8226
COLO 205 = tested on: COLO 205
RXF 393 = tested on: RXF 393
SK-OV-3 = tested on: SK-OV-3
NCI-H226 = tested on: NCI-H226
UO-31 = tested on: UO-31
OVCAR-8 = tested on: OVCAR-8
HCT-15 = tested on: HCT-15
SF-295 = tested on: SF-295
HCC 2998 = tested on: HCC 2998
NCI-H23 = tested on: NCI-H23
HCT-116 = tested on: HCT-116
HOP-92 = tested on: HOP-92
IGROV-1 = tested on: IGROV-1
MOLT-4 = tested on: MOLT-4
MDA-N = tested on: MDA-N
K562 = tested on: K562

Row | SMILES | GI50 (NCI-H460) | GI50 (ACHN) | GI50 (MCF7) | GI50 (RPMI-8226) | GI50 (COLO 205) | GI50 (RXF 393) | GI50 (SK-OV-3) | GI50 (NCI-H226) | GI50 (UO-31) | GI50 (OVCAR-8) | GI50 (HCT-15) [µM] | GI50 (SF-295) | GI50 (HCC 2998) | GI50 (NCI-H23) | GI50 (HCT-116) | GI50 (HOP-92) | GI50 (IGROV-1) | GI50 (MOLT-4) | GI50 (MDA-N) | GI50 (K562)
1 | COc1cc(OC)c2c(O)c3c(cc2c1)CC(C)(C)CC3=O | > 100 µM (inactive) | > 100 µM (inactive) | > 100 µM (inactive) | > 100 µM (inactive) | > 100 µM (inactive) | > 100 µM (inactive) | > 100 µM (inactive) | > 100 µM (inactive) | > 100 µM (inactive) | > 100 µM (inactive) | > 100 | > 72.6 µM (inactive) | > 100 µM (inactive) | > 100 µM (inactive) | > 100 µM (inactive) | > 100 µM (inactive) | > 100 µM (inactive) | > 76.6 µM (inactive) | > 64 µM (inactive) | 
2 | CCNC(=S)N/N=C/c1cc(OC)ccc1O | 35.2 µM (inactive) | 66.7 µM (inactive) | 5.74 µM (inactive) |  | > 100 µM (inactive) | > 100 µM (inactive) | > 100 µM (inactive) | > 100 µM (inactive) | 7.01 µM (inactive) | > 100 µM (inactive) | 47.6 | 70.3 µM (inactive) | > 100 µM (inactive) | > 100 µM (inactive) | 85.5 µM (inactive) | 45.1 µM (inactive) | 82.4 µM (inactive) | 67.1 µM (inactive) | > 100 µM (inactive) | 97.9 µM (inactive)
3 | CC1(C)C(=O)C2(OS(=O)(=O)C(F)(F)F)CCC1C2 (stereo not given) | > 100 µM (inactive) | > 100 µM (inactive) | > 100 µM (inactive) | > 100 µM (inactive) | > 100 µM (inactive) | > 100 µM (inactive) | > 100 µM (inactive) | > 100 µM (inactive) | > 100 µM (inactive) | > 100 µM (inactive) | > 100 | > 100 µM (inactive) | > 100 µM (inactive) | > 100 µM (inactive) | > 100 µM (inactive) | > 100 µM (inactive) | > 100 µM (inactive) | > 100 µM (inactive) | > 100 µM (inactive) | > 100 µM (inactive)
4 | N=c1oc2c(Br)cc(Br)cc2cc1C(=O)Nc1ccccn1 | 71.9 µM (inactive) | 70.5 µM (inactive) | 39.9 µM (inactive) | 87.1 µM (inactive) | > 100 µM (inactive) | 75.3 µM (inactive) | > 100 µM (inactive) | 84.9 µM (inactive) |  | 45.9 µM (inactive) | 38.9 |  | > 100 µM (inactive) | 69.2 µM (inactive) | 38.3 µM (inactive) | > 100 µM (inactive) | > 100 µM (inactive) | > 100 µM (inactive) | > 100 µM (inactive) | > 100 µM (inactive)
5 | CCOP(=O)(OCC)/C(=C\n1c(=S)[nH]c2cc(C)ccc21)C(=O)OC | > 100 µM (inactive) | > 100 µM (inactive) | > 100 µM (inactive) |  | > 100 µM (inactive) | > 100 µM (inactive) | > 100 µM (inactive) | > 100 µM (inactive) | > 100 µM (inactive) | > 100 µM (inactive) | > 100 | > 100 µM (inactive) | > 100 µM (inactive) | > 100 µM (inactive) | > 100 µM (inactive) | > 100 µM (inactive) | > 100 µM (inactive) | > 100 µM (inactive) | > 100 µM (inactive) | 
6 | COC1(CC[C@@H](C)COC2OC(CO)C(O)C(O)C2O)O[C@H]2C[C@H]3[C@@H]4CC=C5C[C@@H](OC6OC(CO)C(OC7OC(C)C(O)C(O)C7O)C(O)C6OC6OC(C)C(O)C(O)C6O)CC[C@]5(C)[C@H]4CC[C@]3(C)[C@H]2[C@@H]1C (stereo not given in full) |  | 11.4 µM (inactive) | 6.28 µM (inactive) | 6.62 µM (inactive) | 5.15 µM (inactive) | 3.41 µM (inactive) | 1.66 µM (inactive) | 9.18 µM (inactive) | 2.92 µM (inactive) | 3.53 µM (inactive) | 1.98 | 2.82 µM (inactive) | 3.74 µM (inactive) | 3.97 µM (inactive) |  | 3.25 µM (inactive) | 4.59 µM (inactive) | 21.7 µM (inactive) | 2.61 µM (inactive) | 18.2 µM (inactive)
7 | C=C1C(=O)OC2/C=C(\CO)CC/C=C(\CO)CC(OC(=O)C(C)C)C12 (stereo not given) | 20.9 µM (inactive) | 1.95 µM (inactive) | 2.66 µM (inactive) | 3.37 µM (inactive) | 2.16 µM (inactive) | 5.83 µM (inactive) | 27.2 µM (inactive) | 16 µM (inactive) | 14 µM (inactive) | 20 µM (inactive) | 3.19 | 21.3 µM (inactive) | 20.7 µM (inactive) | 19.3 µM (inactive) | 7.4 µM (inactive) | 1.27 µM (inactive) | 15.7 µM (inactive) | 3.25 µM (inactive) | 5.68 µM (inactive) | 1.71 µM (inactive)
8 | Cn1c2ccccc2c(=S)c2cc(NC(=O)CCCCC(=O)Nc3ccc4c(c3)c(=S)c3ccccc3n4C)ccc21 | > 100 µM (inactive) | > 100 µM (inactive) | > 100 µM (inactive) | > 100 µM (inactive) | > 100 µM (inactive) | > 100 µM (inactive) | > 100 µM (inactive) | > 100 µM (inactive) | > 100 µM (inactive) | 34.3 µM (inactive) | > 100 | > 100 µM (inactive) | > 100 µM (inactive) | > 100 µM (inactive) | > 100 µM (inactive) | > 100 µM (inactive) | > 100 µM (inactive) | > 100 µM (inactive) | > 100 µM (inactive) | > 100 µM (inactive)
9 | O=P1(c2ccccc2)c2ccccc2-c2ccccc21 |  |  | > 100 µM (inactive) | 74.1 µM (inactive) | > 100 µM (inactive) | 93.8 µM (inactive) | > 100 µM (inactive) | > 100 µM (inactive) | > 100 µM (inactive) | > 100 µM (inactive) | > 100 | 57.8 µM (inactive) | > 100 µM (inactive) | > 100 µM (inactive) | 99.3 µM (inactive) | 13.9 µM (inactive) | > 100 µM (inactive) | 47.5 µM (inactive) | 97.7 µM (inactive) | 86.9 µM (inactive)
10 | O=C1CCC2(CC1CCSc1ccccc1)OCCO2 (stereo not given) | > 100 µM (inactive) | > 100 µM (inactive) | > 100 µM (inactive) | > 100 µM (inactive) | > 100 µM (inactive) | > 100 µM (inactive) | > 100 µM (inactive) | > 100 µM (inactive) | > 100 µM (inactive) | > 100 µM (inactive) | > 100 | > 100 µM (inactive) | > 100 µM (inactive) | > 100 µM (inactive) |  | > 100 µM (inactive) | > 100 µM (inactive) | 81.8 µM (inactive) | > 100 µM (inactive) | > 100 µM (inactive)
11 | CCOC(=O)c1nc2cc(C(F)(F)F)ccc2nc1Oc1ccc(C#N)cc1 | > 100 µM (inactive) | > 100 µM (inactive) | > 100 µM (inactive) | 54.3 µM (inactive) | > 100 µM (inactive) | 19.1 µM (inactive) |  | > 100 µM (inactive) | > 100 µM (inactive) | > 100 µM (inactive) | > 100 | > 100 µM (inactive) | 80 µM (inactive) |  | 16.8 µM (inactive) | > 100 µM (inactive) | > 100 µM (inactive) | 63.2 µM (inactive) | > 100 µM (inactive) | 70.6 µM (inactive)
12 | O=c1oc2nc(-c3ccccc3)cc(C(F)(F)F)c2n1Cc1ccccc1 | > 100 µM (inactive) | 11.7 µM (inactive) | 0.995 µM (active) | 4.41 µM (inactive) | 7.82 µM (inactive) | 2.71 µM (inactive) | 7.8 µM (inactive) | > 100 µM (inactive) |  | 42.4 µM (inactive) | 1.87 | 5.12 µM (inactive) | > 25.8 µM (inactive) | 6.14 µM (inactive) | 3.13 µM (inactive) | 85.5 µM (inactive) | 13.4 µM (inactive) | 4.21 µM (inactive) | 0.689 µM (active) | 1.53 µM (inactive)
13 | c1ccc([P+](CCSCCSCC[P+](c2ccccc2)(c2ccccc2)c2ccccc2)(c2ccccc2)c2ccccc2)cc1 | > 100 µM (inactive) | > 100 µM (inactive) | 40.5 µM (inactive) |  | > 100 µM (inactive) | > 100 µM (inactive) | > 100 µM (inactive) | > 100 µM (inactive) | > 100 µM (inactive) | > 100 µM (inactive) | > 100 | 33 µM (inactive) | > 100 µM (inactive) | > 100 µM (inactive) | > 100 µM (inactive) | > 100 µM (inactive) | > 100 µM (inactive) | > 100 µM (inactive) | > 100 µM (inactive) | 53.5 µM (inactive)
14 | Nc1ccc(-c2nc3cc(F)ccc3s2)cc1Cl | 0.0364 µM (active) | 1.57 µM (inactive) | 0.0102 µM (active) | > 55.1 µM (inactive) | 0.454 µM (active) | 24 µM (inactive) | 19.1 µM (inactive) | 0.109 µM (active) | 31.8 µM (inactive) | 38.6 µM (inactive) | 0.134 | 23.5 µM (inactive) | < 0.01 µM (active) |  | 0.0782 µM (active) | 25.5 µM (inactive) | < 0.01 µM (active) | > 35.6 µM (inactive) | > 100 µM (inactive) | 14.8 µM (inactive)
15 | O=C(O)c1cc(NCc2cc(O)ccc2O)ccc1O [LAVENDUSTIN C] | > 100 µM (inactive) | > 100 µM (inactive) | > 100 µM (inactive) |  | > 100 µM (inactive) | > 100 µM (inactive) | > 100 µM (inactive) | > 100 µM (inactive) | 67.1 µM (inactive) |  | > 100 | > 100 µM (inactive) | > 100 µM (inactive) | > 100 µM (inactive) | 49.9 µM (inactive) | > 100 µM (inactive) | > 100 µM (inactive) |  | 24.8 µM (inactive) | 
